Results: US9458176B2, “Tetrahydroimidazo(1,5-D)[1,4]oxazepine derivative” (Eisai R&D Management Co., Ltd., priority 2013, dated 2016)

Biological target: human mGluR2 (Homo sapiens (Human), UniProt Q14416)
Assay: [35S]GTPγS binding assay (Affinity to mGluR2)
Assay type: biochemical
Details: cell membrane fraction of HEK293 cells stably expressing human mGluR2, glutamic acid 10 μM
Protocol: (Preparation of Cell Membrane Fraction of HEK293 Cells Stably Expressing Human Metabotropic Glutamate Receptor 2 (mGluR2))
HEK293 cells stably expressing human mGluR2 and human glutamate transporter SLC1A3 were cultured in a Dulbecco's modified Eagle's medium with 10% fetal bovine serum (50 units/mL of penicillin, 50 μg/mL of streptomycin, 60 μg/mL of geneticin, 400 μg/mL of hygromycin B and 2 mM of glutamine) at 37° C. under 5% CO2. Confluent cell cultures were washed twice with PBS(−), and then scraped off with a cell scraper, and subjected to centrifugal separation at 4° C. and 1500 rpm for 5 minutes for collecting cells. The centrifuged sediment (cell pellet) was homogenized in a 20 mM HEPES buffer containing 10 mM EDTA (pH 7.4) by using sonicator and centrifuged at 4° C. and 1500×g for 30 minutes. The supernatant (soluble fraction) was subjected to the centrifugal separation at 4° C. and 40,000×g for 30 minutes, and thus, insoluble fraction was obtained. After additional centrifugally washing the obtained fraction with 20 mM HEPES buffer containing 10 mM EDTA (pH 7.4), the pellet was centrifugally suspended with a 20 mM HEPES buffer containing 0.1 mM EDTA, and the cell membrane fraction was obtained by the centrifugal separation at 4° C. and 40,000×g for 30 minutes. The thus obtained cell membrane fraction was suspended in a 20 mM HEPES buffer containing 0.1 mM EDTA in a protein concentration of 3 mg/mL, which was stored at −80° C.
([^35S]GTPγS Binding Assay)
The frozen cell membrane fraction prepared as described above was thawed before use, and the resultant was diluted with a buffer for a binding assay (final concentrations: 20 mM HEPES, 100 mM NaCl, 1 mM MgCl2, 3 μM GDP, 300 μg/mL saponin, 0.1% BSA). The compound of each example was added to a cell membrane fraction containing 1.8 to 3 μg/assay of membrane protein on a plate, followed by incubation at room temperature for 30 minutes. Thereafter, with glutamic acid (in a final concentration of 10 μM) added thereto, incubation was performed at room temperature for 15 minutes, and thereafter, [^35S]GTPγS (in a final concentration of 0.8 kBq) and 588 μg WGA-SPA beads were added thereto, followed by incubation at room temperature for 1 hour. After the incubation, the plate was subjected to the centrifugal separation at 2,500 rpm and room temperature, and then, membrane cell binding radioactivity was measured with a top count.
A [^35S]GTPγS binding amount obtained by performing the above-described reaction in the absence of glutamic acid was defined as nonspecific binding, and a difference from a [^35S]GTPγS binding amount obtained in the presence of glutamic acid was defined as specific binding. On the basis of ratios of inhibiting the specific binding at various concentrations of the compounds of the respective examples, inhibition curves were obtained. Concentrations of the compounds of the respective examples at which the specific [^35S]GTPγS binding amount was suppressed by 50% (IC50 values) were calculated on the basis of the inhibition curves and shown in Tables 8 and 9.

[1] = inhibition of specific [35S]GTPγS binding

human mGluR2, sequence (Q14416 19-872): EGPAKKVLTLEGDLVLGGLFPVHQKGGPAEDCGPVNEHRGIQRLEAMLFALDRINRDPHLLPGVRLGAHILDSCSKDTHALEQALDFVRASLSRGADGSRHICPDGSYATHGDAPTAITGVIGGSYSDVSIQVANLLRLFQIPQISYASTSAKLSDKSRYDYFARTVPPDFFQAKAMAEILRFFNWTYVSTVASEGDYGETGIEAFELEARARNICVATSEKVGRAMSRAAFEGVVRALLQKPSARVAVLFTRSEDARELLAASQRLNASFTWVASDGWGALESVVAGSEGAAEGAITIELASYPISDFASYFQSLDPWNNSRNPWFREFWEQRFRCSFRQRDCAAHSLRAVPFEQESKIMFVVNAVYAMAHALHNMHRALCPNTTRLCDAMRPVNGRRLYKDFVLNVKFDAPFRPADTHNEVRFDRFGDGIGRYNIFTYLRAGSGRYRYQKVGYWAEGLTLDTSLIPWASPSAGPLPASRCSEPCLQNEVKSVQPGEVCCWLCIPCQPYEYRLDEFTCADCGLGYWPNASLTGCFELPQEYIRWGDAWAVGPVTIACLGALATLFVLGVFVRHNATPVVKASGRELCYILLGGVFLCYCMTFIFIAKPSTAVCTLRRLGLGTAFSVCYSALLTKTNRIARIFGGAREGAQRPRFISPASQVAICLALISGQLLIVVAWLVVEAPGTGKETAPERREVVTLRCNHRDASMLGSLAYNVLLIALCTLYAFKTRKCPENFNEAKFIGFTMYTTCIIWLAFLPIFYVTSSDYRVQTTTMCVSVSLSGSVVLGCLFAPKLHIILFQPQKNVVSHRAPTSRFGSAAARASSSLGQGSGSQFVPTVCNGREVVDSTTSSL

Compound | IC50 [nM] | IC50 [1] [nM]
Cc1cc(-c2nc(-c3ccc(OC(F)(F)F)cc3)n3c2CCOCC3)cc(C)n1 [Example 42] | 45.3 | –
Cc1cc(-c2nc(-c3ccc(OC4CC4)c(C)c3)n3c2CCO[C@H](C)C3)cc(CF)n1 [Example 208] | – | 4.7
Cc1cc(-c2nc(-c3ccc(OC4CC4)c(OC(F)(F)F)c3)n3c2CCOCC3)cc(C)n1 [Example 144] | – | 27.7
Cc1cc(-c2nc(-c3ccc(OC4CC4)c(C)c3)n3c2CCO[C@H](C)C3)cc(C)n1 [Example 20, (R)-3-(4-cyclopropoxy-3-methylphenyl)-1-(2,6-dimethylpyridin-4-yl)-6-methyl-5,6,8,9-tetrahydroimidazo[1,5-d][1,4]oxazepine] | 3.4 | –
Cc1cc(-c2nc(-c3ccc(Cl)c(OC(F)(F)F)c3)n3c2CCOCC3)cc(C)n1 [Example 48] | 40 | –
Cc1cc(-c2nc(-c3ccc(C(F)(F)F)c(C)c3)n3c2CCOCC3)cc(C)n1 [Example 113] | 27 | –
Cc1cc(-c2nc(-c3ccc(F)c(OCC4CC4)c3)n3c2CCO[C@H](C)C3)cc(C)n1 [Example 6, (R)-3-(3-cyclopropylmethoxy-4-fluorophenyl)-1-(2,6-dimethylpyridin-4-yl)-6-methyl-5,6,8,9-tetrahydroimidazo[1,5-d][1,4]oxazepine] | 13 | –
C[C@@H]1Cn2c(-c3ccc(OC(F)(F)F)cc3)nc(-c3ccnc(CF)c3)c2CCO1 [Example 85] | 29.7 | –
Cc1cc(-c2nc(-c3cccc(Cl)c3)n3c2CCO[C@H](C)C3)cc(C)n1 [Example 62] | 37.7 | –
COc1cc(-c2nc(-c3cc(C)nc(C)c3)c3n2CCOCC3)ccc1OC(F)(F)F [Example 117] | 22 | –
Cc1cc(-c2nc(-c3ccc(C(F)(F)F)c(Cl)c3)n3c2CCOCC3)cc(C)n1 [Example 109] | 9.1 | –
COc1ccc(-c2nc(-c3cc(C)nc(CF)c3)c3n2C[C@@H](C)OCC3)cc1OC(F)(F)F [Example 210] | – | 4.7
CCOc1cc(-c2nc(-c3cc(C)nc(C)c3)c3n2C[C@@H](C)OCC3)ccc1C [Example 225] | – | 3.9
Cc1cc(-c2nc(-c3ccc(C)c(OCC(C)C)c3)n3c2CCO[C@H](C)C3)cc(C)n1 [Example 227] | – | 22
COc1cc(-c2nc(-c3ccc(Cl)c(OC)c3)n3c2CCO[C@H](C)C3)cc(C)n1 [Example 57] | 28.5 | –
Cc1cc(-c2nc(-c3ccc(Cl)c(Cl)c3)n3c2CCO[C@H](C)C3)cc(CF)n1 [Example 89] | 13.2 | –
Cc1cc(-c2nc(-c3ccc(C)c(OCC4CC4)c3)n3c2CCO[C@H](C)C3)cc(C)n1 [Example 226] | – | 10.5
Cc1cc(-c2nc(-c3ccc(F)c(Cl)c3)n3c2CCO[C@H](C)C3)cc(C)n1 [Example 138] | 21.2 | –
Cc1cc(-c2nc(-c3ccc(OC(F)(F)F)c(CO)c3)n3c2CCO[C@H](C)C3)cc(C)n1 [Example 229] | – | 18
CCOc1cc(-c2nc(-c3cc(C)nc(C)c3)c3n2CCOCC3)ccc1CC [Example 213] | – | 10.7
CCOc1cc(-c2nc(-c3cc(C)nc(C)c3)c3n2C[C@@H](C)OCC3)ccc1CC [Example 220] | – | 5.9
COc1cc(-c2nc(-c3cc(C)nc(C(F)F)c3)c3n2C[C@@H](C)OCC3)ccc1C [Example 80] | 6.3 | –
Cc1cc(-c2nc(-c3ccc(OC(F)(F)F)c(C)c3)n3c2CCO[C@H](C)C3)cc(CO)n1 [Example 179] | – | 17.9

The next lines start with the values.

IC50 [nM] | IC50 [1] [nM] | Compound
– | 29.4 | Cc1cc(-c2nc(-c3ccc(OC(F)F)c(C)c3)n3c2CCO[C@H](C)C3)cc(CO)n1 [Example 177]
– | 24.3 | Cc1cc(-c2nc(-c3ccc(F)c(C(F)(F)F)c3)n3c2CCO[C@H](CF)C3)ccn1 [Example 174]
36 | – | COc1cc(-c2nc(-c3ccnc(C)c3)c3n2CCOCC3)ccc1C(F)(F)F [Example 123]
35.3 | – | Cc1cc(-c2nc(-c3ccc(Cl)c(C)c3)n3c2CCO[C@H](CF)C3)ccn1 [Example 74]
4.1 | – | COc1cc(-c2nc(-c3ccnc(C)c3)c3n2C[C@@H](CF)OCC3)ccc1C(F)(F)F [Example 41, (S)-6-(fluoromethyl)-3-(3-methoxy-4-(trifluoromethyl)phenyl)-1-(2-methylpyridin-4-yl)-5,6,8,9-tetrahydroimidazo[1,5-d][1,4]oxazepine]
14.2 | – | Cc1cc(-c2nc(-c3ccc(OC(F)(F)F)cc3)n3c2CCO[C@H](C)C3)ccn1 [Example 50]
– | 15.1 | Cc1cc(-c2nc(-c3ccc(C(F)F)c(Cl)c3)n3c2CCO[C@H](CF)C3)cc(C)n1 [Example 197]
13.5 | – | COc1cc(-c2nc(-c3ccnc(C)c3)c3n2C[C@@H](CF)OCC3)ccc1Cl [Example 26, (S)-3-(4-chloro-3-methoxyphenyl)-6-fluoromethyl-1-(2-methylpyridin-4-yl)-5,6,8,9-tetrahydroimidazo[1,5-d][1,4]oxazepine]
16.1 | – | COc1cc(-c2nc(-c3cc(C)nc(CF)c3)c3n2C[C@@H](CF)OCC3)ccc1Cl [Example 91]
3.5 | – | Cc1cc(-c2nc(-c3ccc(OC(F)F)c(C)c3)n3c2CCO[C@H](CF)C3)cc(C)n1 [Example 27, (S)-3-(4-(difluoromethoxy)-3-methylphenyl)-1-(2,6-dimethylpyridin-4-yl)-6-(fluoromethyl)-5,6,8,9-tetrahydroimidazo[1,5-d][1,4]oxazepine]
– | 46.9 | COc1cc(-c2nc(-c3ccnc(C)c3)c3n2C[C@@H](C)OCC3)ccc1C(C)(F)F [Example 240]
31 | – | Cc1cc(-c2nc(-c3ccc(Cl)c(Cl)c3)n3c2CCO[C@H](CF)C3)ccn1 [Example 75]
– | 5 | Cc1cc(-c2nc(-c3ccc(OC(F)(F)F)c(C)c3)n3c2CCO[C@H](CF)C3)ccn1 [Example 162]
– | 3 | Cc1cc(-c2nc(-c3ccc(OC(F)(F)F)c(Cl)c3)n3c2CCO[C@H](C)C3)ccn1 [Example 153]
7.4 | – | Cc1cc(-c2nc(-c3ccc(OC(F)F)c(C)c3)n3c2CCO[C@H](C)C3)ccn1 [Example 15, (R)-3-(4-(difluoromethoxy)-3-methylphenyl)-6-methyl-1-(2-methylpyridin-4-yl)-5,6,8,9-tetrahydroimidazo[1,5-d][1,4]oxazepine]
– | 108 | COc1cc(-c2nc(-c3cc(C)nc(CO)c3)c3n2C[C@@H](CF)OCC3)ccc1OC(F)F [Example 194]
78.6 | – | Cc1cc(-c2nc(-c3cccc(Cl)c3)n3c2CCO[C@H](C)C3)ccn1 [Example 63]
4.7 | – | Cc1cc(-c2nc(-c3ccc(OC(F)F)c(C)c3)n3c2CCO[C@H](CF)C3)ccn1 [Example 40, (S)-3-(4-(difluoromethoxy)-3-methylphenyl)-6-(fluoromethyl)-1-(2-methylpyridin-4-yl)-5,6,8,9-tetrahydroimidazo[1,5-d][1,4]oxazepine]
3.8 | – | CC[C@@H]1Cn2c(-c3ccc(Cl)c(OC)c3)nc(-c3ccnc(C)c3)c2CCO1 [Example 78]
– | 19.2 | Cc1cc(-c2nc(-c3ccc(F)c(C(F)(F)F)c3)n3c2CCO[C@H](CF)C3)cc(C)n1 [Example 173]
– | 9.4 | Cc1cc(-c2nc(-c3ccc(OC(F)(F)F)c(F)c3)n3c2CCO[C@H](CF)C3)cc(C)n1 [Example 165]
21.9 | – | COc1cc(-c2nc(-c3ccnc(C)c3)c3n2C[C@@H](C)OCC3)ccc1C [Example 55]
– | 2.4 | COc1cc(-c2nc(-c3cc(C)nc(CF)c3)c3n2C[C@@H](CF)OCC3)ccc1C(F)(F)F [Example 201]
– | 2.4 | Cc1cc(-c2nc(-c3ccc(OC(C)C)c(C)c3)n3c2CCO[C@H](C)C3)cc(C)n1 [Example 242]
– | 72.5 | Cc1cc(-c2nc(-c3ccc(Cl)c(OC(F)F)c3)n3c2CCOCC3)cc(C)n1 [Example 212]
– | 15.2 | Cc1cc(-c2nc(-c3ccc(OC(F)(F)F)c(F)c3)n3c2CCO[C@H](CF)C3)ccn1 [Example 166]
18.9 | – | COc1cc(-c2nc(-c3cc(C)nc(C)c3)c3n2C[C@@H](CF)OCC3)ccc1C [Example 71]
10.9 | – | Cc1cc(-c2nc(-c3ccc(OC(F)(F)F)c(C)c3)n3c2CCOCC3)ccn1 [Example 118]
– | 1.8 | Cc1cc(-c2nc(-c3ccc(OC4CC4)c(Cl)c3)n3c2CCO[C@H](CF)C3)cc(C)n1 [Example 167]
